Source: PMC12040169 (PLOS Biology, 2025)

Test: in vitro
Details: human, hela cells, % viability

| Compound | viability at 28.5 h, 10 µM [%] |
| --- | --- |
| COC(=O)[C@H]1Cc2cc3c(cc2[C@H]1c1cc(OC)c(OC)c(OC)c1)OCO3 [CBK200105] | 54.8 |
| Cc1cc(NS(=O)(=O)c2ccc(C(C)C)cc2)n[nH]1 [CBK044646] | 106 |
| COCCNC(=O)c1cc(-c2ccccc2C)nc2c1cnn2C(C)C [CBK305392] | 111 |
| CC(Oc1ccc(Br)cc1Cl)C(=O)NCCCN1CCCC1=O (centres unmarked) [CBK268138] | 98.7 |
| Cc1ccc(O)c(NC(=O)c2cccc(S(=O)(=O)N3CCCCC3)c2)c1 [CBK267790] | 83.3 |
| O=C(NCc1ccc(Cl)c(Cl)c1)N1CCN(Cc2ccccc2)CC1 [CBK155624] | 85.3 |
| COc1cccc([C@H]2CN(C(=O)c3ccccc3)[C@@H]3CCN(Cc4cccs4)C[C@H]23)c1 [CBK285609] | 102 |
| CCc1c(C(=O)NCCn2ccnc2C)[nH]c2ccc(F)cc12 [CBK283314] | 92.9 |
| O=C1NC(c2cccnc2)Nc2sc3c(c21)CCCC3 (centres unmarked) [CBK072377] | 103 |
| CN1CCN(c2ccccc2NC(=O)c2cccc3c(Br)cccc23)CC1 [CBK267894] | 92.9 |
| COc1ccc(C)cc1-n1ccc(C(=O)NC(C)(C)C(N)=O)n1 [CBK305789] | 94.1 |
| COc1cccc(/C=C2\SC(=S)N(CC(=O)NNC(=O)c3ccccc3O)C2=O)c1 [CBK262202] | 91.1 |
| Cc1ccc(-c2noc([C@@H]3C[C@H](NC(=O)CCC(=O)O)CN3C)n2)cc1 [CBK288852] | 93.8 |
| CC(=O)Nc1cccc(CN2CCCC2CC(O)c2ccccc2)c1 (centres unmarked) [CBK305136] | 104 |
| CC(Oc1ccccc1F)C(=O)N1CCCCC1CN(C)C (centres unmarked) [CBK281544] | 89.5 |
| COC(=O)c1sccc1NS(=O)(=O)c1ccc2ccccc2c1 [CBK004500] | 103 |
| CCN1CCOC(CNCc2ccc(OCC(N)=O)cc2)C1 (centres unmarked) [CBK305108] | 96.8 |
| Cc1nc(C2CCN(C(=O)c3ccnn3C)CC2)c2sccn12 [CBK285203] | 90.3 |
| Nc1ccc2ccc(-c3ccncc3)nc2n1 [CBK067622] | 82.8 |
| Cn1c(=O)oc2cc(S(=O)(=O)NCc3ccccc3)ccc21 [CBK267568] | 90.8 |
| Cc1cc(C(=O)O)ccc1-c1ccc(/C=N/n2cnnc2)o1 [CBK264713] | 92.5 |
| O=c1c2ccccc2nc2n1CCN(Cc1ccc(F)cc1)CC2 [CBK284814] | 96.9 |
| CC1CCCCN1C(=O)CN1C(=O)[C@H]2CCCN2C(=O)c2ccccc21 (some centres unmarked) [CBK286320] | 99.4 |

| Compound | viability at 28.5 h, 10 µM [%] |
| --- | --- |
| C=CCn1c(SCC(=O)Nc2cccc(C(F)(F)F)c2)nnc1C12CC3CC(CC(C3)C1)C2 [CBK266054] | 105 |
| O=C(Cc1nn[nH]n1)Nc1ccc(F)c(Cl)c1 [CBK006384] | 95.4 |
| CC(C)[C@@]1(C)SC(N[C@H]2C[C@H]3C[C@@H]2C[C@@H]3O)=NC1=O [CBK138400] | 102 |
| O=C(Nc1cc(N2CCNCC2)ncn1)c1ccccc1 [CBK004215T] | 94.3 |
| O=C(NC1CC2CCC(C1)N2Cc1ccccc1)c1ccc(Cl)cc1 (centres unmarked) [CBK120192] | 88.4 |
| Cc1onc(-c2ccccc2)c1CNC(=O)[C@@H]1CCCN1C [CBK144077] | 89.8 |
| Cc1nc(Nc2cccc(C3CCCN3C(=O)COc3ccc(F)cc3)n2)sc1C (centres unmarked) [CBK286019] | 87 |
| COc1cc(-c2cnc3[nH]c(=O)n(Cc4ccco4)c3n2)cc(OC)c1OC [CBK064755] | 96.3 |
| CC(C)(C)NC(=O)CCn1c(-c2ccncc2)cc2cccnc21 [CBK282620] | 95.4 |
| CC(C)(CO)CNc1cc(Cl)nc2ccnn12 [CBK037200] | 91 |
| CC(C)(CN1CCCC1)CN1CCC(O)(c2ccccc2F)CC1 [CBK282798] | 93.4 |
| O=C(CS(=O)(=O)Cc1ccccc1)Nc1ccc(S(=O)(=O)N2CCOCC2)cc1 [CBK266658] | 88.8 |
| COc1cc(-c2nnc(NC(=O)c3ccc(C)cc3)o2)cc(OC)c1OC [CBK287699] | 92.2 |
| CC(=O)NCCc1nc2cc(NC(=O)c3cccc([N+](=O)[O-])c3)ccc2n1C [CBK268478] | 90.7 |
| O=C(CCOc1ccccc1)Nc1c(F)cc(F)cc1OC1CCNCC1 [CBK045897T] | 105 |
| CC1CCN(S(=O)(=O)c2ccc(C(=O)O)cc2)CC1 [CBK287195] | 82.7 |
| Cc1ccccc1NC1=NC(=O)C(CC(C)C)O1 (centres unmarked) [CBK074902] | 116 |
| O=C(Cc1ccccc1Cl)N1CCC(O)(c2cccnc2F)CC1 [CBK284360] | 101 |
| COc1ccccc1N1CCN(C(=O)N(CCN)CCC(C)c2ccccc2)CC1 (centres unmarked) [CBK002137C] | 88.7 |
| Cc1ccc([N+](=O)[O-])cc1NC(=O)c1cc(S(=O)(=O)N(C)C)c(Cl)cc1Cl [CBK266764] | 105 |
| CC1(C)CC(=O)c2sc(NC(=O)C3CC3)nc2C1 [CBK287329] | 104 |
| C(=N\c1nc2ccccc2n1CCN1CCOCC1)/c1ccc2c(c1)OCO2 [CBK262270] | 109 |
| CN(C)C(=O)CC(O)c1cc2n(n1)CCN(Cc1cccs1)C2 (centres unmarked) [CBK306620] | 113 |

| Compound | viability at 28.5 h, 10 µM [%] |
| --- | --- |
| Cc1noc(C)c1C(=O)Nc1cnc(-c2ccc(F)cc2)c(-c2ccsc2)n1 [CBK036781] | 97.6 |
| CCOC(=O)Cn1[nH]c(COC(C)(C)C)c(Cc2c(Cl)cccc2Cl)c1=O [CBK103551] | 114 |
| O=C(Nc1cccc(C(=O)O)c1)/C(=C\c1ccc2c(c1)OCO2)NC(=O)c1ccccc1Cl [CBK263746] | 96.4 |
| O=C(NCc1cccc(OCC2CCCO2)c1)C1C2CCCCC21 (centres unmarked) [CBK281517] | 94.3 |
| COC(=O)/C=C/c1cn(C2OC(CO)C(O)C2O)c(=O)[nH]c1=O (centres unmarked) [CBK201339] | 106 |
| COc1cccc(C(=O)Nc2nc3ccc(F)cc3s2)c1 [CBK287342] | 86.9 |
| c1ccc(Nc2nc(-c3ccco3)cn3ccnc23)cc1 [CBK037947] | 86.9 |
| CCOC(=O)C(NC(=O)c1cn(C)cn1)c1cccc(C)c1C (centres unmarked) [CBK304098] | 107 |
| Cc1cc(C)cc(NC(=O)c2ccccc2NS(=O)(=O)c2ccc(F)c(F)c2F)c1 [CBK113886] | 89.1 |
| CC(=O)Nc1ccc(-c2ccc(=O)n3c2[C@@H]2C[C@@H](CN(C(=O)c4ccccc4)C2)C3)cc1 [CBK289198] | 89.4 |
| CCC(O)CNS(=O)(=O)c1ccc(C(C)C)cc1 (centres unmarked) [CBK043543] | 91.6 |
| Cc1nc(C(=O)NC2CC(=O)N(CCc3ccc(F)cc3)C2)cs1 (centres unmarked) [CBK307473] | 100 |
| Cc1sc2c(c1C)c(=O)nc1scc(CC(=O)NCCO)n12 [CBK266726] | 96.3 |
| CC(C)(C(=O)N1CCC(CC(=O)NCCc2ccccc2F)CC1)c1ccc(F)cc1 [CBK286497] | 104 |
| CC1CN(CCOc2ccccc2C=O)CC(C)O1 (centres unmarked) [CBK269687C] | 101 |
| Cc1c(OCCC2CCCCN2C)ccc2c(=O)cc(N3CCOCC3)oc12 (centres unmarked) [CBK016644] | 91.8 |
| Cc1ncccc1C(=O)NC(c1ccc(F)c(F)c1)c1nccn1C (centres unmarked) [CBK283809] | 90.8 |
| CC(C)N1CCC[C@H]1c1nc(-c2ccc(-c3cncnc3)nc2)no1 [CBK288892] | 115 |
| COc1ccc(S(=O)(=O)NCCN2CCOCC2)c(C)c1C [CBK266479] | 99.4 |
| Cc1c(Cl)cccc1NC(=O)CSc1nnc(Cc2cccc3ccccc23)n1-c1ccccc1 [CBK266042] | 98.7 |
| COc1ccc(C(NC(=O)C2CCN(C(=O)C(C)(C)C)CC2)c2cnccn2)cc1 (centres unmarked) [CBK059791] | 97 |
| O=C(C[C@@H]1CCNC[C@@H]1Cc1cc(-c2ccccc2)on1)N1CCN(c2ccccc2)CC1 [CBK289148] | 83.2 |
| CCC(CN1CCOCC1)n1cncc1-c1[nH]c2ccccc2c1C (centres unmarked) [CBK281800] | 106 |

| Compound | viability at 28.5 h, 10 µM [%] |
| --- | --- |
| CC(=O)c1cn(CCC(=O)NC2CCCOC2)c2ccccc12 (centres unmarked) [CBK282515] | 114 |
| O=C(c1ccc2[nH]nnc2c1)N1CCc2ccccc21 [CBK200365] | 102 |
| COC(=O)c1cc(C#N)c(=O)n(CC(O)COc2ccccc2)c1 (centres unmarked) [CBK304991] | 99.3 |
| O=C1COc2ccccc2C/C=C/CC2(CCCNC2)CN1 (centres unmarked) [CBK292029] | 91.5 |
| Cn1c2ccccc2c2ncn(CCCO)c(=O)c21 [CBK287951] | 56.9 |
| COc1ccc(C(=O)Nc2c(Cl)ccc3nsnc23)cc1 [CBK270252] | 87.2 |
| Cc1cc(OCC(O)CN2CCN(CCO)CC2)cc(C)c1Cl (centres unmarked) [CBK278248C] | 92.7 |
| O=C(O)c1cc(-c2ccccc2)nc(Nc2nc3ccccc3s2)n1 [CBK264665] | 108 |
| O=C(Nc1cc(Cl)ccc1Cl)c1ncn[nH]1 [CBK028834] | 92.9 |
| CC(Oc1ccccc1)C(=O)Nc1ccc(C(=O)O)cc1 (centres unmarked) [CBK287154] | 102 |
| COc1ccc(-c2cc(C(=O)Nc3nc4c(OC)cccc4s3)cnc2-c2ccccc2)cn1 [CBK036681] | 105 |
| O=C(Cc1cccs1)N1CCC(O)(c2cccnc2)CC1 [CBK283501] | 104 |
| Cc1ccc(S(=O)(=O)NC(=O)N(Cc2ccccc2)Cc2ccco2)cc1 [CBK269524] | 93 |
| OC[C@@H](c1ccccc1)N1CC[C@H]2c3ccc(Br)cc3CC[C@H]21 [CBK017507C] | 84.4 |
| O=C(c1ccc(NC2CC2)nc1)N1CCC(CN2CCOCC2)CC1 [CBK305970] | 87.6 |
| Cc1ccc(-c2csc(NC(=O)CN3C(=O)CCC3=O)n2)c(C)c1 [CBK287348] | 86.7 |
| COc1cnc(-c2ccccc2OC)c(NC(C)=O)n1 [CBK145259] | 89.1 |
| Cc1nn2cc(-c3n[nH]cc3[N+](=O)[O-])cnc2c1C(N)=O [CBK268957] | 87.4 |
| Cc1ccc2[nH]c3c(c2c1)CCOC31CCN(Cc2ccccc2-c2ccccc2)CC1 [CBK039915] | 89.1 |
| CCc1nnc(NS(=O)(=O)c2ccc(Nc3ccc([N+](=O)[O-])c4nonc34)cc2)s1 [CBK261442] | 92.3 |
